We go through 6 compounds from patent US9474790B2, “Stable, protracted GLP-1/glucagon receptor co-agonists for medical use” (Novo Nordisk A/S, priority 2013, dated 2016).

The term IC50 denotes the concentration at which inhibition is half-maximal.

Numbered stars: 1 amine (or outer) side, 2 acyl side, 3 side chain; on linkers, the order of the positions; unused ones are H or OH. Bridge positions count the residues as written; N and C are the ends. Square brackets hold non-standard residues; d marks the D form. Side chains are listed from the residue outwards. Peptide text beside a SMILES is read from it. I, II: the chains in the order shown. * marks the point of attachment. C18 diacid = O=C(O)CCCCCCCCCCCCCCCCC(=O)*; γGlu = O=C(O)[C@H](CCC(=O)[*:2])N[*:1]; Ac4c = NC1(C(=O)O)CCC1; AEEA = NCCOCCOCC(=O)O; Aib = CC(C)(N)C(=O)O

This test deals with T1, human glucagon receptor (Homo sapiens, UniProt P47871).
T1 construct: expressed in transfected cells; host or cells: BHK cells (parent BHK570, CRE luciferase clone BHK/KZ10-20-48), clone pLJ6'-4-25
T1 sequence (P47871 26-477): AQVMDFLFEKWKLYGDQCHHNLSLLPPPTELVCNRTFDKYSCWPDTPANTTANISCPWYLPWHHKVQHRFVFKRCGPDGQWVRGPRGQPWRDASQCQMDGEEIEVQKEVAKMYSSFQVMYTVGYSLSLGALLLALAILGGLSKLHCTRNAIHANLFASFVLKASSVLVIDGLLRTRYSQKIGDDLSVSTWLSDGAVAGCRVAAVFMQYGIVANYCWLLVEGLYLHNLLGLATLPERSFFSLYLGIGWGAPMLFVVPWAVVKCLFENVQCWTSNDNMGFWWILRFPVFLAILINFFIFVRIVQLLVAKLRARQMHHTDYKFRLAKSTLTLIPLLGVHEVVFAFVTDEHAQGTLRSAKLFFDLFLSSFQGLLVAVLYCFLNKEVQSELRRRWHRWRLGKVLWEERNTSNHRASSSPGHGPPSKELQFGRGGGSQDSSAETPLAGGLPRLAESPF
Nature of the test: Glucagon receptor binding, 125I-glucagon displacement SPA on isolated membranes. Particulars: displacement of 125I-glucagon from membranes; read-out: IC50 GlucR. In short, it runs like this:
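Membranes from BHK cells stably expressing human glucagon receptor incubated 2 h at 25 °C with [125I]-glucagon (25 μl of 480 pM solution) and serial compound dilutions in WGA SPA format, pH 7.4 buffer with 0.1% ovalbumin. Albumin at max 0.001% or 0.2% final. IC50 from non-linear regression.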
Turning to `CC(C)C[C@H](NC(=O)[C@H](Cc1ccc(O)cc1)NC(=O)[C@H](CCCCN)NC(=O)[C@H](CO)NC(=O)[C@H](CC(C)C)NC(=O)[C@H](CC(=O)O)NC(=O)[C@H](CO)NC(=O)[C@@H](NC(=O)[C@H](Cc1ccccc1)NC(=O)[C@@H](NC(=O)CNC(=O)[C@H](CCC(N)=O)NC(=O)C1(NC(=O)[C@@H](N)Cc2c[nH]cn2)CCC1)[C@@H](C)O)[C@@H](C)O)C(=O)N[C@@H](CCC(=O)O)C(=O)N[C@@H](CO)C(=O)N[C@@H](CCCCN)C(=O)N[C@@H](CCCNC(=N)N)C(=O)N[C@@H](C)C(=O)N[C@@H](CCCNC(=N)N)C(=O)N[C@@H](CCC(=O)O)C(=O)N[C@@H](Cc1ccccc1)C(=O)N[C@H](C(=O)N[C@@H](CCC(N)=O)C(=O)N[C@@H](Cc1c[nH]c2ccccc12)C(=O)N[C@@H](CC(C)C)C(=O)N[C@@H](CC(C)C)C(=O)N[C@@H](CCCCNC(=O)CNC(=O)[C@H](CO)NC(=O)[C@H](CCC(=O)O)NC(=O)CNC(=O)[C@H](CO)NC(=O)CC[C@H](NC(=O)CC[C@H](NC(=O)CCCCCCCCCCCCCCCCC(=O)O)C(=O)O)C(=O)O)C(=O)N[C@H](C(N)=O)[C@@H](C)O)C(C)C` [Example 36, N^ε28-[2-[[(2S)-2-[[(2S)-4-carboxy-2-[[2-[[(2S)-2-[[(4S)-4-carboxy-4-[[(4S)-4-carboxy-4-(17-carboxyheptadecanoylamino)butanoyl]amino]butanoyl]amino]-3-hydroxypropanoyl]amino]acetyl]amino]butanoyl]amino]-3-hydroxypropanoyl]amino]acetyl]-[Acb2,Leu10,Glu15,Lys17, Arg20,Glu21,Leu27,Lys28]-Glucagon amide] (I: H-H[Ac4c]QGTFTSDLSKYLESKRAREFVQWLLKT-NH2 / II: {C18 diacid-γGlu-γGlu}-SGESG; amide I:28-II:C; N-terminus assumed), the IC50 stood at 0.6 nM.

Regarding `CC(C)C[C@H](NC(=O)[C@H](Cc1ccc(O)cc1)NC(=O)[C@H](CCCCN)NC(=O)[C@H](CO)NC(=O)[C@H](CC(C)C)NC(=O)[C@H](CC(=O)O)NC(=O)[C@H](CO)NC(=O)[C@@H](NC(=O)[C@H](Cc1ccccc1)NC(=O)[C@@H](NC(=O)CNC(=O)[C@H](CCC(N)=O)NC(=O)C(C)(C)NC(=O)[C@@H](N)Cc1c[nH]cn1)[C@@H](C)O)[C@@H](C)O)C(=O)N[C@@H](CC(=O)O)C(=O)N[C@@H](C)C(=O)N[C@@H](CCCNC(=N)N)C(=O)N[C@@H](CCCNC(=N)N)C(=O)N[C@@H](C)C(=O)N[C@@H](CCCNC(=N)N)C(=O)N[C@@H](CCC(=O)O)C(=O)N[C@@H](Cc1ccccc1)C(=O)N[C@H](C(=O)N[C@@H](CCC(N)=O)C(=O)N[C@@H](Cc1c[nH]c2ccccc12)C(=O)N[C@@H](CC(C)C)C(=O)N[C@@H](CC(C)C)C(=O)N[C@@H](CC(N)=O)C(=O)N[C@@H](CCCCNC(=O)CC[C@H](NC(=O)CC[C@H](NC(=O)COCCOCCNC(=O)CC[C@H](NC(=O)CCCCCCCCCCCCCCCCC(=O)O)C(=O)O)C(=O)O)C(=O)O)C(N)=O)C(C)C` [Example 39, N^ε29-[(4S)-4-carboxy-4-[[(4S)-4-carboxy-4-[[2-[2-[2-[[(4S)-4-carboxy-4-(17-carboxyheptadecanoylamino)butanoyl]amino]ethoxy]ethoxy]acetyl]amino]butanoyl]amino]butanoyl]-[Aib2,Leu10,Ala16,Arg20,Glu21,Leu27,Lys29]-Glucagon amide] (H-H[Aib]QGTFTSDLSKYLDARRAREFVQWLLNK([γGlu-γGlu-AEEA-γGlu-C18 diacid])-NH2; N-terminus assumed), the IC50 turned out to be 5.6 nM.

For `CC(C)C[C@H](NC(=O)[C@H](Cc1ccc(O)cc1)NC(=O)[C@H](CCCCN)NC(=O)[C@H](CO)NC(=O)[C@H](CC(C)C)NC(=O)[C@H](CC(=O)O)NC(=O)[C@H](CO)NC(=O)[C@@H](NC(=O)[C@H](Cc1ccccc1)NC(=O)[C@@H](NC(=O)CNC(=O)[C@H](CCC(N)=O)NC(=O)C(C)(C)NC(=O)[C@@H](N)Cc1c[nH]cn1)[C@@H](C)O)[C@@H](C)O)C(=O)N[C@@H](CCC(=O)O)C(=O)N[C@@H](CO)C(=O)N[C@@H](CCCNC(=N)N)C(=O)N[C@@H](CCCNC(=N)N)C(=O)N[C@@H](C)C(=O)N[C@@H](CCCNC(=N)N)C(=O)N[C@@H](CCC(=O)O)C(=O)N[C@@H](Cc1ccccc1)C(=O)N[C@H](C(=O)N[C@@H](CCC(N)=O)C(=O)N[C@@H](Cc1c[nH]c2ccccc12)C(=O)N[C@@H](CC(C)C)C(=O)N[C@@H](CC(C)C)C(=O)N[C@@H](CCCCNC(=O)CC[C@H](NC(=O)CC[C@H](NC(=O)CC[C@H](NC(=O)CCCCCCCCCCCCCCCCC(=O)O)C(=O)O)C(=O)O)C(=O)O)C(=O)N[C@H](C(N)=O)[C@@H](C)O)C(C)C` [Example 41, N^ε28-[(4S)-4-carboxy-4-[[(4S)-4-carboxy-4-[[(4S)-4-carboxy-4-(17-carboxyheptadecanoylamino)butanoyl]amino]butanoyl]amino]butanoyl]-[Aib2,Leu10,Glu15, Arg20,Glu21,Leu27,Lys28]-Glucagon amide] (H-H[Aib]QGTFTSDLSKYLESRRAREFVQWLLK([γGlu-γGlu-γGlu-C18 diacid])T-NH2; N-terminus assumed), the IC50 was 1.2 nM.

With `CC(C)C[C@H](NC(=O)[C@H](Cc1ccc(O)cc1)NC(=O)[C@H](CCCCN)NC(=O)[C@H](CO)NC(=O)[C@H](CC(C)C)NC(=O)[C@H](CC(=O)O)NC(=O)[C@H](CO)NC(=O)[C@@H](NC(=O)[C@H](Cc1ccccc1)NC(=O)[C@@H](NC(=O)CNC(=O)[C@H](CCC(N)=O)NC(=O)C(C)(C)NC(=O)[C@@H](N)Cc1c[nH]cn1)[C@@H](C)O)[C@@H](C)O)C(=O)N[C@@H](CCC(=O)O)C(=O)N[C@@H](CO)C(=O)N[C@@H](CCCNC(=N)N)C(=O)N[C@@H](CCCNC(=N)N)C(=O)N[C@@H](C)C(=O)N[C@@H](CCCNC(=N)N)C(=O)N[C@@H](CCC(=O)O)C(=O)N[C@@H](Cc1ccccc1)C(=O)N[C@H](C(=O)N[C@@H](CCC(N)=O)C(=O)N[C@@H](Cc1c[nH]c2ccccc12)C(=O)N[C@@H](CC(C)C)C(=O)N[C@@H](CC(C)C)C(=O)N[C@@H](CCCCNC(=O)COCCOCCNC(=O)COCCOCCNC(=O)CC[C@H](NC(=O)CC[C@H](NC(=O)CC[C@H](NC(=O)CCCCCCCCCCCCCCCCC(=O)O)C(=O)O)C(=O)O)C(=O)O)C(=O)N[C@H](C(N)=O)[C@@H](C)O)C(C)C` [Example 42, N^ε28-[2-[2-[2-[[2-[2-[2-[[(4S)-4-carboxy-4-[[(4S)-4-carboxy-4-[[(4S)-4-carboxy-4-(17-carboxyheptadecanoylamino)butanoyl]amino]butanoyl]amino]butanoyl]amino]ethoxy]ethoxy]acetyl]amino]ethoxy]ethoxy]acetyl]-[Aib2,Leu10,Glu15,Arg20,Glu21,Leu27,Lys28]-Glucagon amide] (H-H[Aib]QGTFTSDLSKYLESRRAREFVQWLLK([AEEA-AEEA-γGlu-γGlu-γGlu-C18 diacid])T-NH2; N-terminus assumed), the IC50 is 38.2 nM.

Consider `CC(C)C[C@H](NC(=O)[C@H](Cc1ccc(O)cc1)NC(=O)[C@H](CCCCN)NC(=O)[C@H](CO)NC(=O)[C@H](CC(C)C)NC(=O)[C@H](CC(=O)O)NC(=O)[C@H](CO)NC(=O)[C@@H](NC(=O)[C@H](Cc1ccccc1)NC(=O)[C@@H](NC(=O)CNC(=O)[C@H](CCC(N)=O)NC(=O)C(C)(C)NC(=O)[C@@H](N)Cc1c[nH]cn1)[C@@H](C)O)[C@@H](C)O)C(=O)N[C@@H](CC(=O)O)C(=O)N[C@@H](C)C(=O)N[C@@H](CCCNC(=N)N)C(=O)N[C@@H](CCCNC(=N)N)C(=O)N[C@@H](C)C(=O)N[C@@H](CCCNC(=N)N)C(=O)N[C@@H](CCC(=O)O)C(=O)N[C@@H](Cc1ccccc1)C(=O)N[C@H](C(=O)N[C@@H](CCC(N)=O)C(=O)N[C@@H](Cc1c[nH]c2ccccc12)C(=O)N[C@@H](CC(C)C)C(=O)N[C@@H](CC(C)C)C(=O)N[C@@H](CCCCNC(=O)CC[C@H](NC(=O)CC[C@H](NC(=O)COCCOCCNC(=O)COCCOCCNC(=O)CC[C@H](NC(=O)CCCCCCCCCCCCCCCCC(=O)O)C(=O)O)C(=O)O)C(=O)O)C(=O)N[C@H](C(N)=O)[C@@H](C)O)C(C)C` [Example 43, N^ε28-[(4S)-4-carboxy-4-[[(4S)-4-carboxy-4-[[2-[2-[2-[[2-[2-[2-[[(4S)-4-carboxy-4-(17-carboxyheptadecanoylamino)butanoyl]amino]ethoxy]ethoxy]acetyl]amino]ethoxy]ethoxy]acetyl]amino]butanoyl]amino]butanoyl]-[Aib2,Leu10,Ala16,Arg20,Glu21,Leu27,Lys28]-Glucagon amide] (H-H[Aib]QGTFTSDLSKYLDARRAREFVQWLLK([γGlu-γGlu-AEEA-AEEA-γGlu-C18 diacid])T-NH2; N-terminus assumed), for which the IC50 is 5.6 nM.

As to `CC(C)C[C@H](NC(=O)[C@H](Cc1ccc(O)cc1)NC(=O)[C@H](CCCCN)NC(=O)[C@H](CO)NC(=O)[C@H](CC(C)C)NC(=O)[C@H](CC(=O)O)NC(=O)[C@H](CO)NC(=O)[C@@H](NC(=O)[C@H](Cc1ccccc1)NC(=O)[C@@H](NC(=O)CNC(=O)[C@H](CCC(N)=O)NC(=O)C1(NC(=O)[C@@H](N)Cc2c[nH]cn2)CCC1)[C@@H](C)O)[C@@H](C)O)C(=O)N[C@@H](CCC(=O)O)C(=O)N[C@@H](CO)C(=O)N[C@@H](CCCNC(=N)N)C(=O)N[C@@H](CCCNC(=N)N)C(=O)N[C@@H](C)C(=O)N[C@@H](CCCNC(=N)N)C(=O)N[C@@H](CCC(=O)O)C(=O)N[C@@H](Cc1ccccc1)C(=O)N[C@H](C(=O)N[C@@H](CCC(N)=O)C(=O)N[C@@H](Cc1c[nH]c2ccccc12)C(=O)N[C@@H](CC(C)C)C(=O)N[C@@H](CC(C)C)C(=O)N[C@@H](CCCCNC(=O)CC[C@H](NC(=O)CC[C@H](NC(=O)COCCOCCNC(=O)COCCOCCNC(=O)CC[C@H](NC(=O)CCCCCCCCCCCCCCCCC(=O)O)C(=O)O)C(=O)O)C(=O)O)C(=O)N[C@H](C(N)=O)[C@@H](C)O)C(C)C` [Example 44, N^ε28-[(4S)-4-carboxy-4-[[(4S)-4-carboxy-4-[[2-[2-[2-[[2-[2-[2-[[(4S)-4-carboxy-4-(17-carboxyheptadecanoylamino)butanoyl]amino]ethoxy]ethoxy]acetyl]amino]ethoxy]ethoxy]acetyl]amino]butanoyl]amino]butanoyl]-[Acb2,Leu10,Glu15,Arg20,Glu21,Leu27,Lys28]-Glucagon amide] (H-H[Ac4c]QGTFTSDLSKYLESRRAREFVQWLLK([γGlu-γGlu-AEEA-AEEA-γGlu-C18 diacid])T-NH2; N-terminus assumed), the IC50 worked out at 7.2 nM.
